Reference: patent publication US6992111B2, “Fungicide” (Valent BioSciences Corporation, priority 2003, dated 2006)

Tests used:
[1] = system: Botrytis cinerea; test: Detached bean leaf bioassay, fungal control; assay type: in vivo; conditions: 200 ppm on detached bean leaf; 100 minus percent necrotic area, three days after inoculation
Procedure: Detached Bean Leaf Bioassay
Compound solution: Compound solutions were prepared by diluting compound stock solutions (1.0% w/v compound in DMSO) to 200 ppm with 0.01% w/v Triton X-100.
Spore solution preparation: Botrytis cinerea spores were taken from 6-week-old cultures grown at 22 C on full strength potato dextrous agar (PDA) plates and harvested in 1:16 frozen orange juice concentrate:water. Botrytis cinerea spore solutions were prepared by diluting spore cultures to 5×10^4 spores/mL with 1:16 frozen orange juice concentrate:water.
Plant material: Middle trifoliate leaves of greenhouse grown Phaseolus vulgaris (Bush bean cv. Blue Lake 274) were excised and placed on a plastic grid above a tray containing moist towels.
Treatment method: One half of the adaxial surface of the leaf was treated with the compound solution (100:L) using a 3 cm Bacti Cell Spreader. A blank consisted of 0.01% w/v Triton X-100. A commercial fungicide control (200 ppm diluted with water) consisted of Scala. After the solutions dried, the trays containing the leaves were covered and held one day in a growth chamber (22 C). The adaxial surfaces of the leaves were then inoculated with 5–60:L droplets of Botrytis cinerea spore solution.
Fungal control rating: Three days after inoculation with Botrytis, the percent necrotic area under the inoculation droplet was determined. Since the areas under the blank (0.01% w/v Triton X-100) were 100% infected, fungal control was expressed as 100 minus the percent necrotic area, and thus 0% infected is 100% fungal control (n=3 leaves/compound, 5 inoculation droplets/leaf, Table 2).

[2] = system: Phaseolus vulgaris (Bush bean cv. Blue Lake 274) leaves; test: Detached bean leaf bioassay, phytotoxicity rating; assay type: in vivo
Procedure: Detached Bean Leaf Bioassay Compound solution: Compound solutions were prepared by diluting compound stock solutions (1.0% w/v compound in DMSO) to 200 ppm with 0.01% w/v Triton X-100. Plant material: Middle trifoliate leaves of greenhouse grown Phaseolus vulgaris (Bush bean cv. Blue Lake 274) were excised and placed on a plastic grid above a tray containing moist towels. Treatment method: One half of the adaxial surface of the leaf was treated with the compound solution (100:L) using a 3 cm Bacti Cell Spreader. A blank consisted of 0.01% w/v Triton X-100. A commercial fungicide control (200 ppm diluted with water) consisted of Scala. After the solutions dried, the trays containing the leaves were covered and held one day in a growth chamber (22 C). The adaxial surfaces of the leaves were then inoculated with 5–60:L droplets of Botrytis cinerea spore solution. Phytotoxicity ratings: Phytotoxicity was rated as 0=no phytotoxicity, 1=slight phytotoxicity, 2=moderate phytotoxicity, or 3=excessive phytotoxicity (Table 2).

[3] = system: Sclerotinia sclerotiorum; test: Contact evaluation (microtiter plate fungal growth); assay type: cell-based; conditions: Sclerotinia sclerotionum
Procedure: Contact Evaluation. Compound solution: Contact evaluations were conducted to determine the anti-fungal activity of each compound against Botrytis cinerea, Sclerotinia sclerotiorum, Pythium aphanidermatum, Rhizoctonia solani, Cercospora arachidicola, Mycosphaerella fijiensis, and Monilinia laxa. Five milligrams of each compound were dissolved in 0.5 milliliter of DMSO for a compound stock solution of 1.0% w/v. Compound stock solutions were serial diluted with DMSO to 20, 10, and 2 ppm final well concentration. Fungi preparation: Botrytis cinerea spores were taken from 6-week-old cultures grown at 22 C on full strength potato dextrous agar (PDA) plates. Sclerotinia sclerotiorum, Pythium aphanidermatum, Rhizoctonia solani, and Monilinia laxa mycelia were taken from 4- to 10-day-old shake flask cultures grown at room temperature on full strength potato dextrous broth (PDB). Cercospora arachidicola mycelia were taken from 10- to 14-day-old shake flask cultures grown at room temperature on a full strength PDB amended with peanut oil. Mycosphaerella fijiensis mycelia were taken from 10- to 14-day-old shake flask cultures grown at room temperature on V8 juice broth. Sclerotinia sclerotiorum, Pythium aphanidermatum, Rhizoctonia solani, Cercospora arachidicola, and Mycosphaerella fijiensis mycelia (0.4 g mycelia) were blended for 45 seconds in 20 mL sterile de-ionized water. Monilinia laxa mycelia (1 g mycelia) was blended for 45 seconds in 30 mL of sterile de-ionized water. Botrytis cinerea spores were diluted with quarter strength PDB to 1×10^5 spores/mL final well concentration. All mycelia were diluted in water (1:5 mycelia:water) before distributing into the wells. Microtiter plate preparation: Compound solution (10:L), quarter strength PDB (900:L) and fungi preparation (100:L) were sequentially distributed into 48-well microtiter plates (n=3 replications/compound/rate). A blank consisted of quarter strength PDB and fungi preparation. Commercial fungicide controls (100 ppm diluted with water) consisted of Scala for Botrytis cinerea, Dithane F-45 for Mycosphaerella fijiensis, and Benlate for Sclerotinia sclerotiorum, Pythium aphanidermatum, Rhizoctonia solani, Cercospora arachidicola, and Monilinia laxa. Plates were shaken in a circular rotator at room temperature for 20 minutes, then incubated at 25C for 24 to 72 hours, depending on the pathogen. Fungal control ratings: Fungal growth in wells containing the compounds were compared to the positive control and fungal inhibition was rated as full, partial, or none. Final readings were the average of the three wells (Table 1).

[4] = system: Mycosphaerella fijiensis; test: as above; assay type: cell-based
Procedure: (§1) Compound solution: Contact evaluations were conducted to determine the anti-fungal activity of each compound against Botrytis cinerea, Sclerotinia sclerotiorum, Pythium aphanidermatum, Rhizoctonia solani, Cercospora arachidicola, Mycosphaerella fijiensis, and Monilinia laxa. Five milligrams of each compound were dissolved in 0.5 milliliter of DMSO for a compound stock solution of 1.0% w/v. Compound stock solutions were serial diluted with DMSO to 20, 10, and 2 ppm final well concentration.
(§2) Fungi preparation: Botrytis cinerea spores were taken from 6-week-old cultures grown at 22 C on full strength potato dextrous agar (PDA) plates. Sclerotinia sclerotiorum, Pythium aphanidermatum, Rhizoctonia solani, and Monilinia laxa mycelia were taken from 4- to 10-day-old shake flask cultures grown at room temperature on full strength potato dextrous broth (PDB). Cercospora arachidicola mycelia were taken from 10- to 14-day-old shake flask cultures grown at room temperature on a full strength PDB amended with peanut oil. Mycosphaerella fijiensis mycelia were taken from 10- to 14-day-old shake flask cultures grown at room temperature on V8 juice broth. Sclerotinia sclerotiorum, Pythium aphanidermatum, Rhizoctonia solani, Cercospora arachidicola, and Mycosphaerella fijiensis mycelia (0.4 g mycelia) were blended for 45 seconds in 20 mL sterile de-ionized water. Monilinia laxa mycelia (1 g mycelia) was blended for 45 seconds in 30 mL of sterile de-ionized water. Botrytis cinerea spores were diluted with quarter strength PDB to 1×10^5 spores/mL final well concentration. All mycelia were diluted in water (1:5 mycelia:water) before distributing into the wells.
(§3) Microtiter plate preparation: Compound solution (10:L), quarter strength PDB (900:L) and fungi preparation (100:L) were sequentially distributed into 48-well microtiter plates (n=3 replications/compound/rate). A blank consisted of quarter strength PDB and fungi preparation. Commercial fungicide controls (100 ppm diluted with water) consisted of Scala for Botrytis cinerea, Dithane F-45 for Mycosphaerella fijiensis, and Benlate for Sclerotinia sclerotiorum, Pythium aphanidermatum, Rhizoctonia solani, Cercospora arachidicola, and Monilinia laxa. Plates were shaken in a circular rotator at room temperature for 20 minutes, then incubated at 25C for 24 to 72 hours, depending on the pathogen.
(§4) Fungal control ratings: Fungal growth in wells containing the compounds were compared to the positive control and fungal inhibition was rated as full, partial, or none. Final readings were the average of the three wells (Table 1).

[5] = system: Cercospora arachidicola; test: as above; assay type: cell-based
Procedure: as §1, §2, §3, §4

[6] = system: Rhizoctonia solani; test: as above; assay type: cell-based; conditions: Rhizoctinia solani
Procedure: as §1, §2, §3, §4

[7] = system: Botrytis cinerea; test: as above; assay type: cell-based
Procedure: as §1, §2, §3, §4

[8] = system: Pythium aphanidermatum; test: as above; assay type: cell-based
Procedure: as §1, §2, §3, §4

[9] = system: Monilinia laxa; test: as above; assay type: cell-based
Procedure: as §1, §2, §3, §4

Structure (SMILES) | Botrytis cinerea control (200 ppm) [1] | Phytotoxity (200 ppm) [2] | Control of fungi (full, partial, none) ([3]; fungicide rate 2 ppm) | Control of fungi (full, partial, none) ([3]; fungicide rate 10 ppm) | Control of fungi (full, partial, none) ([3]; fungicide rate 20 ppm) | Control of fungi (full, partial, none) ([4]; fungicide rate 2 ppm) | Control of fungi (full, partial, none) ([4]; fungicide rate 10 ppm) | Control of fungi (full, partial, none) ([4]; fungicide rate 20 ppm) | Control of fungi (full, partial, none) ([5]; fungicide rate 2 ppm) | Control of fungi (full, partial, none) ([5]; fungicide rate 10 ppm) | Control of fungi (full, partial, none) ([5]; fungicide rate 20 ppm) | Control of fungi (full, partial, none) ([6]; fungicide rate 2 ppm) | Control of fungi (full, partial, none) ([6]; fungicide rate 10 ppm) | Control of fungi (full, partial, none) ([6]; fungicide rate 20 ppm) | Control of fungi (full, partial, none) ([7]; fungicide rate 2 ppm) | Control of fungi (full, partial, none) ([7]; fungicide rate 10 ppm) | Control of fungi (full, partial, none) ([7]; fungicide rate 20 ppm) | Control of fungi (full, partial, none) ([8]; fungicide rate 2 ppm) | Control of fungi (full, partial, none) ([8]; fungicide rate 10 ppm) | Control of fungi (full, partial, none) ([8]; fungicide rate 20 ppm) | other results
O=[N+]([O-])c1ccc(O)c(-c2ccc(C(F)(F)F)cc2)c1 [X = CF3] | 100% | Moderate | Full | Full | Full | Full | Full | Full | Full | Full | Full | Partial | Full | Full | Full | Full | Full | Full | Full | Full | Control of fungi (full, partial, none) ([9]; fungicide rate 2 ppm): Full; Control of fungi (full, partial, none) ([9]; fungicide rate 10 ppm): Full; Control of fungi (full, partial, none) ([9]; fungicide rate 20 ppm): Full
O=[N+]([O-])c1ccc(O)c(-c2ccc(Cl)cc2)c1 [X = Cl] | 97% | Moderate | Full | Full | Full | Full | Full | Full | Full | Full | Full | Full | Full | Full | Full | Full | Full | Full | Full | Full | Control of fungi (full, partial, none) ([9]; fungicide rate 2 ppm): Full; Control of fungi (full, partial, none) ([9]; fungicide rate 10 ppm): Full; Control of fungi (full, partial, none) ([9]; fungicide rate 20 ppm): Full
O=[N+]([O-])c1ccc(O)c(-c2ccc(F)cc2)c1 [X = F] | 31% | None | Full | Full | Full | Full | Full | Full | Full | Full | Full | None | Full | Full | Partial | Full | Full | Partial | Full | Full | Control of fungi (full, partial, none) ([9]; fungicide rate 2 ppm): Partial; Control of fungi (full, partial, none) ([9]; fungicide rate 10 ppm): Full; Control of fungi (full, partial, none) ([9]; fungicide rate 20 ppm): Full
